Reference: PMC5218480 (PLoS ONE, 2017)

Tested on: MV-4-11 cells
Assay: Gene expression microarray analysis (Affymetrix PrimeView) and GSEA
Assay type: cell-based, human
Parameters: RFU PODN (11730768_x_at) / Fold change /veh PODN (11730768_x_at) / RFU LINC00158 (11744669_a_at) / Fold change /veh LINC00158 (11744669_a_at) / RFU DUSP10 (11751237_a_at) / Fold change /veh DUSP10 (11751237_a_at) / RFU ID3 (11757404_x_at) / Fold change /veh ID3 (11757404_x_at) / RFU PLEKHG5 (11737974_s_at) / Fold change /veh PLEKHG5 (11737974_s_at) / RFU LRRC4B (11730491_at) / Fold change /veh LRRC4B (11730491_at) / RFU GIMAP4 (11747438_a_at) / Fold change /veh GIMAP4 (11747438_a_at) / RFU KRT8 (11758183_x_at) / Fold change /veh KRT8 (11758183_x_at) / RFU CNN1 (11734310_a_at) / Fold change /veh CNN1 (11734310_a_at) / RFU VPS37D (11726825_at) / Fold change /veh VPS37D (11726825_at) / RFU C10orf10 (11716522_x_at) / Fold change /veh C10orf10 (11716522_x_at) / RFU KIR2DL2 /// KIR2DL4 /// KIR2DL5A /// KIR2DL5B /// KIR2DS1 /// KIR2DS2 /// KIR2DS3 /// KIR2DS4 /// KIR3DL3 /// KIR3DL3 /// KIR3DS1 (11738374_at) / Fold change /veh KIR2DL2 /// KIR2DL4 /// KIR2DL5A /// KIR2DL5B /// KIR2DS1 /// KIR2DS2 /// KIR2DS3 /// KIR2DS4 /// KIR3DL3 /// KIR3DL3 /// KIR3DS1 (11738374_at) / RFU C1QL1 (11718748_at) / Fold change /veh C1QL1 (11718748_at) / RFU TMPRSS4 (11747572_a_at) / Fold change /veh TMPRSS4 (11747572_a_at) / RFU HAMP (11756126_x_at) / Fold change /veh HAMP (11756126_x_at) / RFU RNFT2 (11725882_a_at) / Fold change /veh RNFT2 (11725882_a_at) / RFU NR4A2 (11747474_a_at) / Fold change /veh NR4A2 (11747474_a_at) / RFU ABCC12 (11746883_a_at) / Fold change /veh ABCC12 (11746883_a_at) / RFU TMEM136 (11760407_x_at) / Fold change /veh TMEM136 (11760407_x_at) / RFU CLDN22 /// WWC2 (11732394_at) / Fold change /veh CLDN22 /// WWC2 (11732394_at) / RFU HLA-DPB1 (11760878_x_at) / Fold change /veh HLA-DPB1 (11760878_x_at) / RFU SPINT1 (11716480_a_at) / Fold change /veh SPINT1 (11716480_a_at) / RFU GAP43 (11754022_s_at) / Fold change /veh GAP43 (11754022_s_at) / RFU A4GNT (11735810_at) / Fold change /veh A4GNT (11735810_at) / RFU PRB3 (11715151_x_at) / Fold change /veh PRB3 (11715151_x_at) / RFU TUBB4B (11761932_at) / Fold change /veh TUBB4B (11761932_at) / RFU CAPN14 (11732068_a_at) / Fold change /veh CAPN14 (11732068_a_at) / RFU TMCC2 (11721928_a_at) / Fold change /veh TMCC2 (11721928_a_at) / RFU IRGQ (11745062_a_at) / Fold change /veh IRGQ (11745062_a_at) / RFU FAM174B (11720279_a_at) / Fold change /veh FAM174B (11720279_a_at) / RFU TMPRSS4 (11748680_a_at) / Fold change /veh TMPRSS4 (11748680_a_at) / RFU FAM212B (11763350_a_at) / Fold change /veh FAM212B (11763350_a_at) / RFU PLEKHG5 (11743358_a_at) / Fold change /veh PLEKHG5 (11743358_a_at) / RFU ZSCAN30 (11745921_a_at) / Fold change /veh ZSCAN30 (11745921_a_at) / RFU CMKLR1 (11741424_a_at) / Fold change /veh CMKLR1 (11741424_a_at) / RFU LOC101060620 /// MAPK8IP1 (11723275_at) / Fold change /veh LOC101060620 /// MAPK8IP1 (11723275_at) / RFU SPTSSB (11747773_x_at) / Fold change /veh SPTSSB (11747773_x_at) / RFU PRSS12 (11739890_at) / Fold change /veh PRSS12 (11739890_at) / RFU BIN1 (11741810_x_at) / Fold change /veh BIN1 (11741810_x_at) / RFU WNT11 (11732464_a_at) / Fold change /veh WNT11 (11732464_a_at) / RFU C10orf10 (11716521_a_at) / Fold change /veh C10orf10 (11716521_a_at) / RFU C5orf56 (11738089_at) / Fold change /veh C5orf56 (11738089_at) / RFU CYB561 (11721691_x_at) / Fold change /veh CYB561 (11721691_x_at) / RFU ANKRD19P (11752326_a_at) / Fold change /veh ANKRD19P (11752326_a_at) / RFU OR2T12 /// OR2T33 /// OR2T8 (11738714_s_at) / Fold change /veh OR2T12 /// OR2T33 /// OR2T8 (11738714_s_at) / RFU VCAN (11748164_a_at) / Fold change /veh VCAN (11748164_a_at) / RFU JSRP1 (11732532_at) / Fold change /veh JSRP1 (11732532_at) / RFU KRTAP10-11 (11738290_x_at) / Fold change /veh KRTAP10-11 (11738290_x_at) / RFU MYO3A (11730013_a_at) / Fold change /veh MYO3A (11730013_a_at) / RFU EBF3 (11725865_a_at) / Fold change /veh EBF3 (11725865_a_at) / RFU CAMK2N1 (11719241_x_at) / Fold change /veh CAMK2N1 (11719241_x_at) / RFU C5orf56 (11738088_a_at) / Fold change /veh C5orf56 (11738088_a_at) / RFU OLFML3 (11715873_a_at) / Fold change /veh OLFML3 (11715873_a_at) / RFU LOC100653217 /// NTM (11731650_a_at) / Fold change /veh LOC100653217 /// NTM (11731650_a_at) / RFU MAPK11 (11762145_a_at) / Fold change /veh MAPK11 (11762145_a_at) / RFU FIZ1 (11724087_x_at) / Fold change /veh FIZ1 (11724087_x_at) / RFU OASL (11726364_x_at) / Fold change /veh OASL (11726364_x_at) / RFU SOX15 (11748057_x_at) / Fold change /veh SOX15 (11748057_x_at) / RFU CD79A (11719716_a_at) / Fold change /veh CD79A (11719716_a_at) / RFU HIST1H1D (11736915_at) / Fold change /veh HIST1H1D (11736915_at) / RFU CASKIN2 (11723855_a_at) / Fold change /veh CASKIN2 (11723855_a_at) / RFU LOC730098 (11760151_x_at) / Fold change /veh LOC730098 (11760151_x_at) / RFU OR4N2 (11742367_at) / Fold change /veh OR4N2 (11742367_at) / RFU PRRT2 (11749266_a_at) / Fold change /veh PRRT2 (11749266_a_at) / RFU SNX32 (11753110_a_at) / Fold change /veh SNX32 (11753110_a_at) / RFU CDHR5 (11726645_a_at) / Fold change /veh CDHR5 (11726645_a_at) / RFU RCAN1 (11760418_a_at) / Fold change /veh RCAN1 (11760418_a_at) / RFU FAM167A (11723789_a_at) / Fold change /veh FAM167A (11723789_a_at) / RFU FAM26E (11764081_at) / Fold change /veh FAM26E (11764081_at) / RFU ISYNA1 (11749810_s_at) / Fold change /veh ISYNA1 (11749810_s_at) / RFU ACY1 (11761880_at) / Fold change /veh ACY1 (11761880_at) / RFU 11764098_at / Fold change /veh 11764098_at / RFU SAMD14 (11745864_x_at) / Fold change /veh SAMD14 (11745864_x_at) / RFU NPB (11741838_a_at) / Fold change /veh NPB (11741838_a_at) / RFU TMPRSS6 (11731388_a_at) / Fold change /veh TMPRSS6 (11731388_a_at) / RFU KRTAP10-2 (11738614_at) / Fold change /veh KRTAP10-2 (11738614_at) / RFU ARHGAP8 /// PRR5-ARHGAP8 (11727945_x_at) / Fold change /veh ARHGAP8 /// PRR5-ARHGAP8 (11727945_x_at) / RFU KRTAP5-7 /// NADSYN1 (11734609_at) / Fold change /veh KRTAP5-7 /// NADSYN1 (11734609_at) / RFU RASL12 (11751679_a_at) / Fold change /veh RASL12 (11751679_a_at) / RFU CDKN2B (11736163_a_at) / Fold change /veh CDKN2B (11736163_a_at) / RFU PRF1 (11729649_at) / Fold change /veh PRF1 (11729649_at) / RFU, ZNF638 /// ZNF638-IT1 / Fold change vs veh, ZNF638 /// ZNF638-IT1 / RFU, PANK3 / Fold change vs veh, PANK3 / RFU, SH3YL1 / Fold change vs veh, SH3YL1 / RFU, ZEB2 / Fold change vs veh, ZEB2 / RFU, NRIP1 / Fold change vs veh, NRIP1 / RFU, PTTG1IP / Fold change vs veh, PTTG1IP / RFU, CAPN2 / Fold change vs veh, CAPN2 / RFU, MED14 / Fold change vs veh, MED14 / RFU, SNORA58 / Fold change vs veh, SNORA58 / RFU, C1orf63 / Fold change vs veh, C1orf63 / RFU, LRRFIP1 / Fold change vs veh, LRRFIP1 / RFU, NDUFAF7 / Fold change vs veh, NDUFAF7 / RFU, SLC12A2 / Fold change vs veh, SLC12A2 / RFU, IBTK / Fold change vs veh, IBTK / RFU, ESF1 / Fold change vs veh, ESF1 / Fold change vs veh, TMEM50B / RFU, TAOK1 / Fold change vs veh, TAOK1 / RFU, ACBD3 / Fold change vs veh, ACBD3 / RFU, TMA16 / Fold change vs veh, TMA16 / RFU, RWDD3 / Fold change vs veh, RWDD3 / RFU, BCAT1 / Fold change vs veh, BCAT1 / RFU, EDEM3 / Fold change vs veh, EDEM3 / RFU, TMEM33 / Fold change vs veh, TMEM33 / RFU, WDR75 / Fold change vs veh, WDR75 / RFU, AHCTF1 / Fold change vs veh, AHCTF1 / RFU, TFRC / Fold change vs veh, TFRC / RFU, ZDHHC17 / Fold change vs veh, ZDHHC17 / RFU, NOM1 / Fold change vs veh, NOM1 / RFU, ARL8B / Fold change vs veh, ARL8B / RFU, ZBTB11 / Fold change vs veh, ZBTB11 / RFU, TAMM41 / Fold change vs veh, TAMM41 / RFU, KIAA1704 /// LOC100996395 / Fold change vs veh, KIAA1704 /// LOC100996395 / RFU, ING1 / Fold change vs veh, ING1 / RFU, TRMT61B / Fold change vs veh, TRMT61B / RFU, FUBP3 / Fold change vs veh, FUBP3 / RFU, TP53 / Fold change vs veh, TP53 / RFU, TNKS2 / Fold change vs veh, TNKS2 / RFU, ZFP14 / Fold change vs veh, ZFP14 / RFU, ACTR2 / Fold change vs veh, ACTR2 / RFU, PPP3R1 / Fold change vs veh, PPP3R1 / RFU, PIK3R1 / Fold change vs veh, PIK3R1 / RFU, HNRNPA1 / Fold change vs veh, HNRNPA1 / RFU, RNF170 / Fold change vs veh, RNF170 / RFU, ZNF28 / Fold change vs veh, ZNF28 / RFU, RNGTT / Fold change vs veh, RNGTT / RFU, OGT / Fold change vs veh, OGT / RFU, BRD1 / Fold change vs veh, BRD1 / RFU, MARS / Fold change vs veh, MARS / RFU, ZNF655 / Fold change vs veh, ZNF655 / RFU, FAHD1 / Fold change vs veh, FAHD1 / RFU, BDP1 / Fold change vs veh, BDP1 / RFU, LRRCC1 / Fold change vs veh, LRRCC1 / RFU, ARID1A / Fold change vs veh, ARID1A / RFU, ZNF146 / Fold change vs veh, ZNF146 / RFU, ZNF330 / Fold change vs veh, ZNF330 / RFU, GPN3 / Fold change vs veh, GPN3 / RFU, C9orf123 / Fold change vs veh, C9orf123 / RFU, N4BP2L2 / Fold change vs veh, N4BP2L2 / RFU, ARFIP1 / Fold change vs veh, ARFIP1 / RFU, FAM179B / Fold change vs veh, FAM179B / RFU, BCL10 / Fold change vs veh, BCL10 / RFU, UHRF1BP1L / Fold change vs veh, UHRF1BP1L / RFU, BET1 / Fold change vs veh, BET1 / RFU, CNOT2 / Fold change vs veh, CNOT2 / RFU, ZNF268 / Fold change vs veh, ZNF268 / Fold change vs veh, ZNF507 / RFU, DGCR2 / Fold change vs veh, DGCR2 / RFU, WDSUB1 / Fold change vs veh, WDSUB1 / Fold change vs veh, HSP90B1 /// MIR3652 / RFU, ADSS / Fold change vs veh, ADSS / RFU, GK / Fold change vs veh, GK / RFU, ZNF148 / Fold change vs veh, ZNF148 / RFU, TAF9 / Fold change vs veh, TAF9 / RFU, SLC1A5 / Fold change vs veh, SLC1A5 / RFU, SLMO2 / Fold change vs veh, SLMO2 / RFU, ABCC4 / Fold change vs veh, ABCC4 / RFU, LOC101060439 /// RAP1B / Fold change vs veh, LOC101060439 /// RAP1B / RFU, RFX7 / Fold change vs veh, RFX7 / RFU, GTPBP10 / Fold change vs veh, GTPBP10 / RFU, CNEP1R1 / Fold change vs veh, CNEP1R1 / RFU, BIVM-ERCC5 /// ERCC5 / Fold change vs veh, BIVM-ERCC5 /// ERCC5 / RFU, ILF3 / Fold change vs veh, ILF3 / RFU 11762660_at / Fold change /veh 11762660_at / RFU VCAN (11757783_s_at) / Fold change /veh VCAN (11757783_s_at) / RFU DDX43 (11728927_at) / Fold change /veh DDX43 (11728927_at) / RFU KRT8 (11758188_x_at) / Fold change /veh KRT8 (11758188_x_at) / RFU NKD1 (11759106_at) / Fold change /veh NKD1 (11759106_at) / RFU SRD5A1 (11742802_a_at) / Fold change /veh SRD5A1 (11742802_a_at) / RFU TPSAB1 /// TPSB2 (11721975_s_at) / Fold change /veh TPSAB1 /// TPSB2 (11721975_s_at) / RFU GSTM3 (11746129_a_at) / Fold change /veh GSTM3 (11746129_a_at) / RFU IL23R (11737362_x_at) / Fold change /veh IL23R (11737362_x_at) / RFU TMEM51 (11727254_a_at) / Fold change /veh TMEM51 (11727254_a_at) / RFU PIWIL2 (11732686_x_at) / Fold change /veh PIWIL2 (11732686_x_at) / RFU ORM1 (11744905_x_at) / Fold change /veh ORM1 (11744905_x_at) / RFU CCDC152 (11743942_at) / Fold change /veh CCDC152 (11743942_at) / RFU ECM1 (11717891_a_at) / Fold change /veh ECM1 (11717891_a_at) / RFU IL23R (11748794_a_at) / Fold change /veh IL23R (11748794_a_at) / RFU TNFAIP8L3 (11732012_x_at) / Fold change /veh TNFAIP8L3 (11732012_x_at) / RFU MBOAT4 (11741988_at) / Fold change /veh MBOAT4 (11741988_at) / RFU 11764193_at / Fold change /veh 11764193_at / RFU TMEM53 (11763286_at) / Fold change /veh TMEM53 (11763286_at) / RFU MAGEB2 (11727129_at) / Fold change /veh MAGEB2 (11727129_at) / RFU TMEM200A (11744735_a_at) / Fold change /veh TMEM200A (11744735_a_at) / RFU CCDC152 (11751479_a_at) / Fold change /veh CCDC152 (11751479_a_at) / RFU FAM211A (11726209_a_at) / Fold change /veh FAM211A (11726209_a_at) / RFU RGS16 (11746705_a_at) / Fold change /veh RGS16 (11746705_a_at) / RFU VCAN (11755009_s_at) / Fold change /veh VCAN (11755009_s_at) / RFU RHOB (11743442_s_at) / Fold change /veh RHOB (11743442_s_at) / RFU RGS16 (11720943_a_at) / Fold change /veh RGS16 (11720943_a_at) / RFU RGS16 (11720944_at) / Fold change /veh RGS16 (11720944_at) / RFU, VPS4B / Fold change vs veh, VPS4B / RFU, CREB1 / Fold change vs veh, CREB1 / RFU, DNAJC13 / Fold change vs veh, DNAJC13 / RFU, GNAQ / Fold change vs veh, GNAQ / RFU, CDK5R1 / Fold change vs veh, CDK5R1 / RFU, ZRANB3 / Fold change vs veh, ZRANB3 / RFU, CUL4A / Fold change vs veh, CUL4A / RFU, CCNY / Fold change vs veh, CCNY / RFU, UFL1 / Fold change vs veh, UFL1 / RFU, COG3 / Fold change vs veh, COG3 / RFU, DIAPH2 / Fold change vs veh, DIAPH2 / RFU, SKA2 / Fold change vs veh, SKA2 / RFU, AFF3 / Fold change vs veh, AFF3 / RFU, LMF1 / Fold change vs veh, LMF1 / RFU, IPO11 / Fold change vs veh, IPO11 / RFU, DFFB / Fold change vs veh, DFFB / RFU, FOXP1 / Fold change vs veh, FOXP1 / RFU, CARD8 / Fold change vs veh, CARD8 / RFU, STRN3 / Fold change vs veh, STRN3 / RFU, ADK / Fold change vs veh, ADK / RFU, RASSF2 / Fold change vs veh, RASSF2 / RFU, WIPF1 / Fold change vs veh, WIPF1 / RFU, LARP1B / Fold change vs veh, LARP1B / RFU, RASA1 / Fold change vs veh, RASA1 / RFU, RB1 / Fold change vs veh, RB1 / RFU, PPFIA1 / Fold change vs veh, PPFIA1 / RFU, MAT2A / Fold change vs veh, MAT2A / RFU, CCT5 / Fold change vs veh, CCT5 / RFU, WDR92 / Fold change vs veh, WDR92 / RFU, CUX1 / Fold change vs veh, CUX1 / RFU, TTC7A / Fold change vs veh, TTC7A / RFU, TMEM135 / Fold change vs veh, TMEM135 / RFU, DEPTOR / Fold change vs veh, DEPTOR / RFU, CPM / Fold change vs veh, CPM / RFU, DNAJB6 / Fold change vs veh, DNAJB6 / RFU, CACNA2D3 / Fold change vs veh, CACNA2D3 / RFU, DTX4 / Fold change vs veh, DTX4 / RFU, TFCP2 / Fold change vs veh, TFCP2 / RFU, GMCL1 /// GMCL1P1 / Fold change vs veh, GMCL1 /// GMCL1P1 / RFU, AEBP2 / Fold change vs veh, AEBP2 / RFU, SNHG1 /// SNORD22 /// SNORD25 /// SNORD26 /// SNORD27 /// SNORD28 /// SNORD29 /// SNORD31 / Fold change vs veh, SNHG1 /// SNORD22 /// SNORD25 /// SNORD26 /// SNORD27 /// SNORD28 /// SNORD29 /// SNORD31 / Fold change (Aza/veh), C12orf56 (ProbeSet 11735607_a_at) / Fold change (ACY-1035/veh), C12orf56 (ProbeSet 11735607_a_at) / Fold change (Aza/veh), FGFR1OP (ProbeSet 11751329_s_at) / Fold change (ACY-1035/veh), FGFR1OP (ProbeSet 11751329_s_at) / Fold change (Aza/veh), VPS36 (ProbeSet 11739960_a_at) / Fold change (ACY-1035/veh), VPS36 (ProbeSet 11739960_a_at) / RFU SYPL1 (11715823_x_at) / Fold change /veh SYPL1 (11715823_x_at) / RFU IGFBP7 (11715501_s_at) / Fold change /veh IGFBP7 (11715501_s_at) / RFU REEP3 (11722064_at) / Fold change /veh REEP3 (11722064_at) / RFU IGLL1 (11728026_x_at) / Fold change /veh IGLL1 (11728026_x_at): dose or concentration left out as unconfirmed
Settings: MV-4-11 cells, 48 hours

With `Nc1ccc(-c2cccs2)cc1NC(=O)c1ccc2c(c1)cc(C1CC1)n2CCN1CCOCC1` [ACY-1035] the “RFU RASL12 (11751679_a_at)” value was 18.80 RFU.
